Experimental data as given in PubChem BioAssay AID2060510 (Molecular Pharmacology Branch, DTP, NCI, 2025).
Several values for one entry are separate records, joined by “and”; a condition that tells them apart may be missing. Equal entries are not always repeated.

Tested on: 439559-082-T-J2-PDC spheroids viability
Test: Anticancer human tumor 439559-082-T-J2-PDC patient-derived colon adenocarcinoma cell line growth inhibition [GQUAD]
Settings: for viability, T/C: stronger effect = lower value
Text: DNA G-quadruplex Stabilizer Agents in Combinations in Complex Spheroids
A high-throughput screen of multi-cell type tumor spheroids was designed to identify active combinations of DNA G-quadruplex stabilizer agents and targeted small molecules. Complex spheroids include a stromal component modeled by human endothelial cells (HUVEC) and fibroblasts modeled by human mesenchymal stem cells (MSCs). The concentration ranges selected for each drug and investigational agent were based upon clinically achievable concentrations if the clinical Cmax of the agent was known.
Compounds. The drugs and investigational agents: pidnarulex (CX-5461; NSC782164), APTO-253 (NSC789042), BRACO-19 (NSC847499), peposertib (NSC802822), ceralasertib (NSC780249), elimusertib (NSC800525), camonsertib (NSC841442), AZD-1390 (NSC803789), olaparib (NSC753686), talazoparib (NSC767125), ART-558 (NSC835418), sotorasib (NSC818433), MRTX-1133 (NSC836407), SN-38 (NSC673596), topotecan (NSC609699), etoposide (NSC141540), doxorubicin (NSC123127), gemcitabine (NSC613327), 5-fluorouracil (NSC19893), paclitaxel (NSC125973), vemurafenib (NSC761431), panobinostat (NSC761190), R-306465 (JNJ-16241199; NSC773264), adavosertib (NSC754352), TP-3654 (NSC805149), carboplatin (NSC241240), KSQ-4279 (NSC840948), and staurosporine (NSC755774) were obtained from the National Cancer Institute (NCI) Developmental Therapeutics Program Chemical Repository (34). The FDA-approved anticancer drug set is available from the NCI Developmental Therapeutics Program. […] The stock solutions were prepared in dimethyl sulfoxide (DMSO, Sigma-Aldrich, St. Louis, MO, cat. D2650) at 800-fold the tested concentration and stored at -70 degrees C prior to their use. All drugs and investigational agents were tested over a range starting from a high concentration at or near the clinical Cmax and decreasing in half-log increments. If the clinical Cmax for an agent had not been determined, the highest concentration tested was 10 microM.
2.3 Cell Culture. All cells were maintained in an incubator at 37 degrees C and 5% CO2 with 95% humidity. The PDC lines were cultured according to standard operating procedures established by the NCI PDMR. All PDCs were thawed and cultured in Matrigel-coated flasks prepared with a working solution of 1X Ham's F-12 nutrient mix, without supplementation (Invitrogen, cat. 11765054), 100 U/mL penicillin-streptomycin (Invitrogen, cat. 15140122), and 2.5% Matrigel (Corning Inc., cat. 354248) for the first three passages. The 857933-349-R-J2-PDC line was cultured in 6C/Colon 1B media, which includes advanced DMEM/F-12 (Thermo Fisher Scientific, cat. 12634028), 10 mM HEPES (Thermo Fisher Scientific, cat. 15630080), 1X GlutaMAX supplement (Thermo Fisher Scientific, cat. 35050061), 0.1 mg/mL primocin (InvivoGen, cat. ant-pm-2), 10% defined fetal bovine serum, heat inactivated (HyClone Laboratories Inc., cat. SH30070.03HI), 50% L-WRN conditioned media (ATCC, cat. CRL-3276), 1.25 mM N-Acetyl-L-cysteine (Sigma-Aldrich, cat. A9165), 10 mM nicotinamide (Sigma-Aldrich, cat. N0636), 1X B-27 supplement (Thermo Fisher Scientific, cat. 17504044), 1X N-2 supplement (Thermo Fisher Scientific, cat. 17502048), 10 microM Y-27632 dihydrochloride (Tocris Bioscience, cat. 1254), and 50 ng/mL human EGF recombinant protein (Thermo Fisher Scientific, cat. PHG0311). The 485176-168-R4-J1-PDC line was cultured in Panc media, which includes all 6C/Colon 1B media components plus 100 ng/mL human FGF-10 (Thermo Fisher Scientific, cat. 100-26), 500 nM SB-431542 (Selleckchem, cat. S1067), and gastrin (Tocris, cat. 3006).
[…]
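Further: spheroids exposed to the agents for 7 days before readout.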
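Wherever viability, T/C is given: percent of luminescence signal in DMSO vehicle wells taken as 100% viability.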

With CCc1c2c(nc3ccc(O)cc13)-c1cc3c(c(=O)n1C2)COC(=O)[C@]3(O)CC the viability, T/C (compound 0.000999 µM) was 92.9% and 101% and 105%, the viability, T/C (compound 0.00316 µM) was 88.5% and 90.5% and 87.7% and the viability, T/C (compound 0.00999 µM) was 78.4% and 78.2% and 84.3%. For the same compound, the viability, T/C (compound 0.0316 µM) was 71.1% and 81.8% and 69.5%, the viability, T/C (compound 0.0999 µM) was 61.7% and 59.3% and 49.4% and the viability, T/C (compound 0.316 µM) was 47.6% and 44.7% and 36.1%. The IC50 (curve of compound) was 272 nM and 229 nM and 115 nM.
For Cn1ncnc1[C@H]1c2n[nH]c(=O)c3cc(F)cc(c23)N[C@@H]1c1ccc(F)cc1, the viability, T/C (compound 0.000999 µM) was 92.5% and 104% and 94.8%, the viability, T/C (compound 0.00316 µM) was 84.5% and 91.5% and 115% and the viability, T/C (compound 0.00999 µM) was 84.5% and 99.1% and 95.4%. For the same compound, the viability, T/C (compound 0.0316 µM) was 87.8% and 102% (2×), the viability, T/C (compound 0.0999 µM) was 94.9% and 96.3% and 91.8% and the viability, T/C (compound 0.316 µM) was 91.2% and 91.9% and 86.3%. The IC50 (curve of compound) was greater than 316 nM.
In the case of CC(C)(O)C1CCC(Nc2ccc3ncc(-c4cccc(C(F)(F)F)c4)n3n2)CC1 (centres undefined), the viability, T/C (compound 0.0316 µM) is reported as 100% and 101% and 106%, the viability, T/C (compound 0.1 µM) is reported as 76.5% and 92.8% and 98.9% and the viability, T/C (compound 0.316 µM) is reported as 60.8% and 103% and 99.9%. For the same compound, the viability, T/C (compound 1 µM) was 57.9% and 71.8% and 90%, the viability, T/C (compound 3.16 µM) was 53.2% and 7.83% and 15.9% and the viability, T/C (compound 10 µM) was 49.5% and 12.5% and 13.8%. The IC50 (curve of compound) was > 10000 nM and 1500 nM and 1860 nM.
C#Cc1c(F)ccc2cc(O)cc(-c3ncc4c(N5CC6CCC(C5)N6)nc(OCC56CCCN5CC(F)C6)nc4c3F)c12 (centres undefined) was tested, and the viability, T/C (compound 0.0316 µM) was 96.1% and 98.3% and 86.1%, the viability, T/C (compound 0.1 µM) was 86.3% and 94.2% and 72.7% and the viability, T/C (compound 0.316 µM) was 76.8% and 90.2% and 62.7%. For the same compound, the viability, T/C (compound 1 µM) was 75.4% and 78.3% and 59.6%, the viability, T/C (compound 3.16 µM) was 60.6% and 9.56% and 49.7% and the viability, T/C (compound 10 µM) was 49% and 15.8% and 45.7%. For the same compound, the IC50 (curve of compound) was 9820 nM and 1640 nM and 3590 nM.
Work on COc1ncnc(C2CC2)c1-c1ncc2cnn(Cc3ccc(-c4nc(C(F)(F)F)cn4C(C)C)cc3)c2n1 + CN(C)c1ccc(Nc2c3ccc(NC(=O)CCN4CCCC4)cc3nc3cc(NC(=O)CCN4CCCC4)ccc23)cc1 yielded an IC50 (curve of first compound, second compound 0.0316 µM) greater than 10000 nM, an IC50 (curve of first compound, second compound 0.1 µM) greater than 10000 nM and an IC50 (curve of first compound, second compound 0.316 µM) greater than 10000 nM. The IC50 (curve of first compound, second compound 1 µM) was greater than 10000 nM, the IC50 (curve of first compound, second compound 3.16 µM) was greater than 10000 nM and the IC50 (curve of first compound, second compound 10 µM) was greater than 10000 nM. For the same compound, the viability, T/C (second compound 0.0316 µM, first compound 0.0316 µM) was 93.2%, the viability, T/C (second compound 0.0316 µM, first compound 0.1 µM) was 106% and the viability, T/C (second compound 0.0316 µM, first compound 0.316 µM) was 90.6%. It also gave a viability, T/C (second compound 0.0316 µM, first compound 1 µM) of 89.5%, a viability, T/C (second compound 0.0316 µM, first compound 3.16 µM) of 103% and a viability, T/C (second compound 0.0316 µM, first compound 10 µM) of 98.5%. For the same compound, the viability, T/C (second compound 0.1 µM, first compound 0.0316 µM) was 98.7%, the viability, T/C (second compound 0.1 µM, first compound 0.1 µM) was 93.5% and the viability, T/C (second compound 0.1 µM, first compound 0.316 µM) was 97.5%. It also gave a viability, T/C (second compound 0.1 µM, first compound 1 µM) of 99.1%, a viability, T/C (second compound 0.1 µM, first compound 3.16 µM) of 94.8% and a viability, T/C (second compound 0.1 µM, first compound 10 µM) of 96.6%. For the same compound, the viability, T/C (second compound 0.316 µM, first compound 0.0316 µM) was 91.6%, the viability, T/C (second compound 0.316 µM, first compound 0.1 µM) was 96.1% and the viability, T/C (second compound 0.316 µM, first compound 0.316 µM) was 82.7%. It also gave a viability, T/C (second compound 0.316 µM, first compound 1 µM) of 97.7%, a viability, T/C (second compound 0.316 µM, first compound 3.16 µM) of 96.8% and a viability, T/C (second compound 0.316 µM, first compound 10 µM) of 102%. For the same compound, the viability, T/C (second compound 1 µM, first compound 0.0316 µM) was 98.8%, the viability, T/C (second compound 1 µM, first compound 0.1 µM) was 96.3% and the viability, T/C (second compound 1 µM, first compound 0.316 µM) was 98.4%. The viability, T/C (second compound 1 µM, first compound 1 µM) was 87.9%, the viability, T/C (second compound 1 µM, first compound 3.16 µM) was 104% and the viability, T/C (second compound 1 µM, first compound 10 µM) was 92.7%. For the same compound, the viability, T/C (second compound 3.16 µM, first compound 0.0316 µM) was 90.4%, the viability, T/C (second compound 3.16 µM, first compound 0.1 µM) was 98.4% and the viability, T/C (second compound 3.16 µM, first compound 0.316 µM) was 91.6%. It also gave a viability, T/C (second compound 3.16 µM, first compound 1 µM) of 93.5%, a viability, T/C (second compound 3.16 µM, first compound 3.16 µM) of 96% and a viability, T/C (second compound 3.16 µM, first compound 10 µM) of 99%. It also gave a viability, T/C (second compound 10 µM, first compound 0.0316 µM) of 89.3%, a viability, T/C (second compound 10 µM, first compound 0.1 µM) of 86.2% and a viability, T/C (second compound 10 µM, first compound 0.316 µM) of 90.6%. It also gave a viability, T/C (second compound 10 µM, first compound 1 µM) of 96.6%, a viability, T/C (second compound 10 µM, first compound 3.16 µM) of 105% and a viability, T/C (second compound 10 µM, first compound 10 µM) of 92.6%.
In the case of O=C(c1cc(Cc2n[nH]c(=O)c3ccccc23)ccc1F)N1CCN(C(=O)C2CC2)CC1, the viability, T/C (compound 0.0316 µM) is reported as 90.9% and 100% and 96.4%, the viability, T/C (compound 0.1 µM) is reported as 103% and 97.7% and 97.9% and the viability, T/C (compound 0.316 µM) is reported as 94.8% and 86.2% and 99.2%. The viability, T/C (compound 1 µM) was 98.9% and 98.6% and 98.4%, the viability, T/C (compound 3.16 µM) was 123% and 104% and 94.1% and the viability, T/C (compound 10 µM) was 91.1% and 89.6% and 94.1%. The IC50 (curve of compound) was greater than 10000 nM.
With CC1COCCN1c1cc(C2(O)CC3CCC(C2)O3)c2cnn(-c3ccn[nH]3)c2n1 (centres undefined) the viability, T/C (compound 0.0316 µM) was 88.9% and 93.8% and 110%, the viability, T/C (compound 0.1 µM) was 94.8% and 93.7% and 78.8% and the viability, T/C (compound 0.316 µM) was 68.1% and 75.7% and 73.3%. The viability, T/C (compound 1 µM) was 52.4% and 55.8% and 50.7%, the viability, T/C (compound 3.16 µM) was 39% and 40.9% and 32.5% and the viability, T/C (compound 10 µM) was 33.2% and 39.8% and 28.5%. The IC50 (curve of compound) was 1030 nM and 1520 nM.
